# Results: ChEMBL document CHEMBL5584223, “Research progress of prodrugs for the treatment of cerebral ischemia” (Eur J Med Chem, 2024)
# pIC50: −log10 of the molar value.
# Columns and labels:
# Platelet [1] = assay: Inhibition of AA-induced platelet aggregation in New Zealand White rabbit; assay type: functional, cell-based; conditions: Oryctolagus cuniculus
# Platelet [2] = assay: Inhibition of ADP-induced platelet aggregation in New Zealand White rabbit; assay type: functional, cell-based; conditions: Oryctolagus cuniculus
# Mus musculus = assay: Neuroprotective activity against hypoxia-ischemia brain injured mouse model assessed as reduction in infarct volume at 20 mg/kg, iv measured after 72 hrs by immuno-histochemistry based staining analysis relative to control; assay type: functional; design: scale not given: the % may be the effect or the level left
# [3] = Cmax in Sprague-Dawley rat at 12.5 mg/kg, iv measured for 24 hrs by LC-MS/MS analysis; assay type: ADME, organism-based; conditions: in vivo
# [4] = AUC (0 to t) in Sprague-Dawley rat at 12.5 mg/kg, iv incubated for 24 hrs by LC-MS/MS analysis; assay type: ADME, organism-based; conditions: in vivo
# [5] = AUC (0 to infinity) in Sprague-Dawley rat at 12.5 mg/kg, iv incubated for 24 hrs by LC-MS/MS analysis; assay type: ADME, organism-based; conditions: in vivo
# Rattus norvegicus [6] = assay: Protection against MCAO-induced rat assessed as reduction in infarct volume in brain at 40 mg/kg, iv measured after 24 hrs relative to control; assay type: functional; design: scale not given: the % may be the effect or the level left
# Rattus norvegicus [7] = assay: Protection against MCAO-induced Sprague-Dawley rat assessed as reduction in infarct volume in brain at 20 mg/kg, iv measured for 24 hrs relative to control; assay type: functional; design: scale not given: the % may be the effect or the level left
# Platelet [8] = assay: Inhibition of ADP-induced platelet aggregation in New Zealand White rabbit at 1 uM relative to control; assay type: functional; conditions: Oryctolagus cuniculus
# [9] = Half life in rat at 15 mg/kg, iv measured after 24 hrs by LC-MS/MS analysis; assay type: ADME, organism-based; conditions: in vivo
# [10] = Ratio of drug concentration in rat brain to plasma measured after 0.5 hrs by LC-MS/MS analysis; assay type: ADME; conditions: read-out: BPR
# [11] = Ratio of drug concentration in rat brain to plasma measured after 1 hrs by LC-MS/MS analysis; assay type: ADME; conditions: read-out: BPR
# [12] = Ratio of drug concentration in rat brain to plasma measured after 6 hrs by LC-MS/MS analysis; assay type: ADME; conditions: read-out: BPR
# [13] = Plasma concentration in human; assay type: ADME
# [14] = Lipophilicity, logP of compound; assay type: physicochemical; conditions: octanol/water
# [15] = Solubility of compound in PBS at pH 7.4; assay type: physicochemical
# SH-SY5Y = assay: Neuroprotective activity against MPP+-induced human SH-SY5Y cells assessed as reduction in cell death at 20 uM measured after 48 hrs by MTT assay; assay type: functional; design: scale not given: the % may be the effect or the level left
structure (smiles),measurement,setting,value
CCCC[C@H](OC(=O)CN1CCC(O[N+](=O)[O-])CC1)c1ccccc1C(=O)OCCCCCCOc1ccc(-c2cc(=S)ss2)cc1,pIC50,Platelet [1],6.96
same,pIC50,Platelet [2],7.00
CC(=N)NCc1cccc(/C=[N+](\[O-])C(C)(C)C)c1,Activity,Mus musculus,30%
O=P([O-])([O-])Oc1ccc(-c2cc(=S)ss2)cc1.[Na+].[Na+],Cmax,[3],3330 ng/mL
same,AUCt,[4],3927.4 h/ng/mL
same,AUC,[5],4579 h/ng/mL
CCCC[C@H](OC(C)=O)c1ccccc1C(=O)O.N=C(N)NCCC[C@H](N)C(=O)O,Activity,Rattus norvegicus [6],78.21%
Cc1cc(O)n(-c2ccc(F)cc2)n1,Activity,Rattus norvegicus [7],32.46%
CCCCC(OC(=O)CN(CC)CC)c1ccccc1C(=O)Oc1ccc(/C=C/C(=O)OCCCCO[N+](=O)[O-])cc1OC (stereo unspecified),inhibition at 1 µM,Platelet [8],88.5%
same,Activity,Rattus norvegicus [6],18.3%
CCCCC(OC(=O)CN(C)C)c1ccccc1C(=O)Oc1ccc(/C=C/C(=O)OC[C@@H]2OC(O)[C@@H](O)[C@H](O)[C@H]2O)cc1OC (stereo partly specified),half-life,[9],44 min
same,Kp at 0.5 h,[10],1.99
same,Kp at 1 h,[11],1.27
same,Kp at 6 h,[12],4.8
O=C(Nc1cc(C(F)(F)F)cc(C(F)(F)F)c1)c1cc(Cl)ccc1OP(=O)(O)O,Cp,[13],> 500 ng/mL
CCCCC1OC(=O)c2ccccc21 (stereo not drawn) [RAC-3-N-BUTYLPHTHALIDE],inhibition at 1 µM,Platelet [8],51.4%
CCCC[C@H](OC(C)=O)c1ccccc1C(=O)O,Activity,Rattus norvegicus [7],66.12%
O=C(O)[C@H]1O[C@@H](Oc2cc3oc(-c4ccc(O)cc4)cc(=O)c3c(O)c2O)[C@H](O)[C@@H](O)[C@@H]1O [SCUTELLARIN],logP,[14],0.015
Clc1ccccc1CN1CCc2sccc2C1 [TICLOPIDINE],pIC50,Platelet [2],6.44
CCCC[C@H]1OC(=O)c2ccccc21,Activity,Rattus norvegicus [7],78.21%
same,pIC50,Platelet [1],6.38
same,pIC50,Platelet [2],6.15
"COC(=O)[C@H]1O[C@@H](Oc2cc3oc(-c4ccc(OCCCCOC(=O)C5=CCc6cc(OC)ccc6N5C)cc4)cc(=O)c3c(O)c2O)[C@H](O)[C@H](O)[C@H]1O (single isomer, unassigned)",logP,[14],1.76
same,solubility,[15],183 µg/mL
same,Activity,SH-SY5Y,65%
CC(=O)Oc1ccccc1C(=O)O [ASPIRIN],inhibition at 1 µM,Platelet [8],73.7%
